Some test systems named below: Escherichia coli D21; Escherichia coli K91BK; Staphylococcus aureus.
Experiment in all cases: ≥ marks a high value that may be exact or a test limit, other limits are often not marked, values filed in µg/mL are converted to µM
In assay [1] the test system is Acinetobacter baumannii ATCC 19606.
Assay [2] deals with Enterobacter cloacae ATCC 49141.
In assay [3] the test system is Enterococcus faecalis ATCC 19433.
The subject of assay [4] is Escherichia coli ATCC 25922.
Assay [5] deals with Pseudomonas aeruginosa ATCC 27853.
The test system of assay [6] is Bacillus anthracis Sterne 34F2.
For assay [7], the system named is Bacillus subtilis var. niger ATCC 9372.
The subject of assay [8] is Burkholderia thailandensis.
Assay [9] deals with Candida albicans ATCC 36232.
In assay [10] the test system is Escherichia coli ATCC 2592.
Assay [11] deals with Micrococcus luteus ATCC 9341.
The test system of assay [12] is Proteus vulgaris ATCC 6380.
Assay [13] has as its system Pseudomonas aeruginosa ATCC 9027.
Assay [14] relates to Staphylococcus aureus ATCC 6538.
Assay [15] deals with Clavibacter michiganensis subsp. michiganensis DSM 46294.
For assay [16], the system named is Pectobacterium carotovorum subsp. carotovorum DSM 30168.
In assay [17] the test system is Pseudomonas corrugata DSM 7228.
Assay [18] deals with Pseudomonas syringae pv. syringae DSM 10604.
The subject of assay [19] is Pseudomonas syringae pv. tomato DC3000.
Assay [20] concerns Staphylococcus aureus 90857.
Assay [21] relates to Xanthomonas vesicatoria DSM 50861.
Assay [22] concerns Escherichia coli IFO 3972.
For assay [23], the system named is Staphylococcus aureus FDA 209P.
For assay [24], the system named is Neisseria gonorrhoeae F62.
Assay [25] deals with Neisseria gonorrhoeae FA19.
For assay [26], the system named is Candida albicans ATCC 37092.
In assay [27] the test system is Staphylococcus aureus ATCC 29213.
For assay [28], the system named is Enterococcus faecalis ATCC 29212.
For assay [29], the system named is Staphylococcus epidermidis PIA 8400.
Assay [30] relates to Escherichia coli NCTC 10418.
Assay [31] relates to Staphylococcus aureus ATCC 25923.
Assay [32] deals with Staphylococcus aureus NCTC 12981.

Each structure is given as a SMILES string. Values after ≈ are worked out from the molar mass of the structure shown. Values joined by “and” are separate entries in the source; they are usually repeats but may differ in a detail not shown here. Identical values can stand only once.

One may read the MIC as the lowest concentration found to suppress growth. Consider `CC(C)C[C@H](NC(=O)[C@H](CCCCN)NC(=O)[C@H](CCCCN)NC(=O)[C@H](CC(C)C)NC(=O)[C@H](CC(C)C)NC(=O)[C@H](CCCCN)NC(=O)[C@H](CCCCN)NC(=O)[C@H](CC(C)C)NC(=O)[C@H](CC(C)C)NC(=O)[C@H](CCCCN)NC(=O)[C@H](CCCCN)NC(=O)[C@H](CC(C)C)NC(=O)[C@H](C)NC(=O)[C@H](CC(=O)O)NC(=O)[C@@H](N)CC(=O)O)C(=O)O` [DDALKKLLKKLLKKL], for which the minimal inhibitory concentration (MIC) is 25 µM (≈ 44.2 µg/mL) in [1]; 6.2 µM (≈ 11 µg/mL) in assay [2]; not below 50 µM in assay [3]; 50 µM and 75 µM in assay [4]; 25 µM (≈ 44.2 µg/mL) with Escherichia coli D21; 12.5 µM and 25 µM in assay [5].
On to `CC[C@H](C)[C@H](NC(=O)[C@H](CCCN=C(N)N)NC(=O)[C@@H](NC(=O)[C@@H](NC(=O)[C@H](CCCN=C(N)N)NC(=O)[C@H](CC(C)C)NC(=O)[C@@H](NC(=O)[C@@H](NC(=O)[C@@H]1CCCN1C(=O)CNC(=O)[C@H](Cc1ccc(O)cc1)NC(=O)[C@H](CCCCN)NC(=O)[C@H](CCCCN)NC(=O)[C@@H](NC(=O)[C@H](C)NC(=O)[C@H](Cc1cnc[nH]1)NC(=O)[C@@H](NC(=O)[C@@H](NC(=O)[C@H](CCCCN)NC(=O)[C@H](CCCN=C(N)N)NC(=O)CNC(=O)[C@H](CC(C)C)NC(=O)[C@H](CCCN=C(N)N)NC(=O)[C@H](CCCN=C(N)N)NC(=O)[C@H](CC(C)C)NC(=O)[C@H](C)NC(=O)CNC(C)=O)[C@@H](C)CC)[C@@H](C)O)C(C)C)[C@@H](C)O)C(C)C)[C@@H](C)CC)[C@@H](C)CC)C(=O)N[C@@H](C)C(=O)NCC(N)=O` [GALRRLGRKITHAVKKYGPTVLRIIRIAG], for which the minimum inhibitory concentration (MIC) was 1.19 µM (≈ 3.87 µg/mL) in assay [6], 1.31 µM (≈ 4.27 µg/mL) in assay [7], not below 84.1 µM in [8] and 28.7 µM (≈ 93.4 µg/mL) in the assay with Escherichia coli K91BK.
For `CC[C@H](C)[C@H](NC(=O)[C@H](CCCCN)NC(=O)[C@@H]1CCCN1C(=O)[C@H](CC(C)C)NC(=O)[C@H](Cc1ccccc1)NC(=O)[C@H](CC(N)=O)NC(=O)[C@H](C)NC(=O)[C@H](C)NC(=O)[C@H](CC(C)C)NC(=O)CNC(=O)[C@H](C)NC(=O)[C@H](CC(C)C)NC(=O)[C@@H](N)CC(C)C)C(=O)N[C@@H](Cc1ccccc1)C(=O)N[C@@H](CS)C(=O)N[C@@H](CCCCN)C(=O)N[C@H](C(=O)N[C@H](C(=O)N[C@@H](CCCN=C(N)N)C(=O)N[C@@H](CCCCN)C(=O)N[C@@H](CS)C(N)=O)[C@@H](C)O)[C@@H](C)CC` [LLAGLAANFLPKIFCKITRKC], the minimal inhibitory concentration (MIC) is 2.69 µM (≈ 6.25 µg/mL) in assay [9]; 5.39 µM (≈ 12.5 µg/mL) in [10]; 2.69 µM (≈ 6.25 µg/mL) in assay [11]; not below 43.1 µM in assay [12]; 5.39 µM (≈ 12.5 µg/mL) in assay [13]; 5.39 µM (≈ 12.5 µg/mL) in assay [14]. This compound also returned an MIC in the assay on Staphylococcus aureus of 10.8 µM (≈ 25 µg/mL).
Consider `CC[C@H](C)[C@H](NC(=O)[C@H](CC(C)C)NC(=O)[C@H](CCCCN)NC(=O)[C@H](CCCCN)NC(=O)[C@H](CC(C)C)NC(=O)[C@@H](NC(=O)[C@H](CCCCN)NC(=O)[C@H](CCCCN)NC(=O)[C@@H](NC(=O)[C@@H](NC(=O)[C@H](CCCN=C(N)N)NC(=O)[C@@H](N)CC(C)C)[C@@H](C)CC)[C@@H](C)CC)[C@@H](C)CC)C(N)=O` [LRIIKKILKKLI], for which the minimal inhibitory concentration (MIC) turned out to be 0.338 µM (≈ 0.5 µg/mL) in assay [15]; 1.69 µM (≈ 2.5 µg/mL) in [16]; 0.338 µM (≈ 0.5 µg/mL) in assay [17]; 0.338 µM (≈ 0.5 µg/mL) in assay [18]; 0.169 µM (≈ 0.25 µg/mL) in [19]; 3 µM (≈ 4.43 µg/mL) in [20]. This compound came in with a minimum inhibitory concentration (MIC) in assay [21] of 0.169 µM (≈ 0.25 µg/mL).
As for `CC(C)[C@H](NC(=O)[C@H](CCCCN)NC(=O)[C@H](CCCN=C(N)N)NC(=O)[C@H](CCCCN)NC(=O)[C@H](CCCCN)NC(=O)[C@H](CCCCN)NC(=O)[C@@H]1CCCN1)C(=O)O` [PKKKRKV], the MIC in assay [22] and in [23] was not below 500 µM in each case.
For the compound `CC(C)C[C@H](NC(=O)[C@H](CCCNC(=N)N)NC(=O)CNC(=O)CNC(=O)[C@@H](N)CCCNC(=N)N)C(=O)N[C@H]1CSSC[C@@H](C(N)=O)NC(=O)[C@H](C(C)C)NC(=O)[C@@H]2CSSC[C@H](NC(=O)[C@H](Cc3ccc(O)cc3)NC1=O)C(=O)N[C@@H](CCCNC(=N)N)C(=O)N[C@@H](CCCNC(=N)N)C(=O)N[C@@H](CCCNC(=N)N)C(=O)N[C@@H](Cc1ccccc1)C(=O)N2` [RGGRLCYCRRRFCVC], the MIC in assay [24] was 0.58 µM (≈ 1.07 µg/mL); in assay [25] it was 4.11 µM (≈ 7.58 µg/mL).
As to `CC[C@H](C)[C@H](NC(=O)[C@H](CCCN=C(N)N)NC(=O)[C@@H](N)CCCN=C(N)N)C(=O)N[C@@H](CCCN=C(N)N)C(=O)N1CCC[C@H]1C(=O)N[C@@H](CCCN=C(N)N)C(=O)N1CCC[C@H]1C(=O)N1CCC[C@H]1C(=O)N[C@@H](CCCN=C(N)N)C(=O)N[C@@H](CC(C)C)C(=O)N1CCC[C@H]1C(=O)N[C@@H](CCCN=C(N)N)C(=O)N1CCC[C@H]1C(=O)N[C@@H](CCCN=C(N)N)C(=O)N1CCC[C@H]1C(=O)N[C@@H](CCCN=C(N)N)C(=O)N1CCC[C@H]1C(=O)N[C@@H](CC(C)C)C(=O)N1CCC[C@H]1C(=O)N[C@@H](Cc1ccccc1)C(=O)N1CCC[C@H]1C(=O)N[C@@H](CCCN=C(N)N)C(=O)N1CCC[C@H]1C(=O)NCC(=O)O` [RRIRPRPPRLPRPRPRPLPFPRPG], the minimal inhibitory concentration (MIC) in assay [26] turned out to be 1.12 µM (≈ 3.29 µg/mL); in [4], 0.45 µM (≈ 1.32 µg/mL); in [27], 2.6 µM (≈ 7.64 µg/mL).
Take `CC[C@H](C)[C@H](NC(=O)[C@H](Cc1c[nH]c2ccccc12)NC(=O)[C@@H](NC(=O)[C@@H](NC(=O)[C@H](Cc1c[nH]c2ccccc12)NC(=O)[C@H](CCCCN)NC(=O)[C@H](CCCCN)NC(=O)[C@@H](NC(=O)[C@@H](N)CCCN=C(N)N)[C@@H](C)O)[C@@H](C)CC)C(C)C)C(N)=O` [RTKKWIVWI]: the MIC is 55.3 µM and 110 µM in assay [28]; 13.8 µM (≈ 17 µg/mL) in [4]; 27.7 µM (≈ 34 µg/mL) in [27]; 13.8 µM (≈ 17 µg/mL) in [29].
As for `NC(=O)[C@H](Cc1c[nH]c2ccccc12)NC(=O)[C@H](CCCN=C(N)N)NC(=O)[C@H](Cc1c[nH]c2ccccc12)NC(=O)[C@H](CCCN=C(N)N)NC(=O)[C@@H](N)Cc1c[nH]c2ccccc12` [WRWRW], the MIC is 16.9 µM (≈ 15 µg/mL) in assay [4]; not below 72 µM in [30]; 56.2 µM (≈ 49.9 µg/mL) in [5]; 11.2 µM (≈ 9.99 µg/mL) in assay [31]; not below 72 µM in assay [32].

(Values after DBAASP.)
